Reference: PMC12715756 (ACS Chemical Neuroscience, 2025)

Tests used:
OCT2 = molecular target: T1, OCT2 (Homo sapiens, UniProt O15244); test: Uptake inhibition assay, [3H]MPP+ uptake in HEK293 cells
T1 sequence (O15244 1-555): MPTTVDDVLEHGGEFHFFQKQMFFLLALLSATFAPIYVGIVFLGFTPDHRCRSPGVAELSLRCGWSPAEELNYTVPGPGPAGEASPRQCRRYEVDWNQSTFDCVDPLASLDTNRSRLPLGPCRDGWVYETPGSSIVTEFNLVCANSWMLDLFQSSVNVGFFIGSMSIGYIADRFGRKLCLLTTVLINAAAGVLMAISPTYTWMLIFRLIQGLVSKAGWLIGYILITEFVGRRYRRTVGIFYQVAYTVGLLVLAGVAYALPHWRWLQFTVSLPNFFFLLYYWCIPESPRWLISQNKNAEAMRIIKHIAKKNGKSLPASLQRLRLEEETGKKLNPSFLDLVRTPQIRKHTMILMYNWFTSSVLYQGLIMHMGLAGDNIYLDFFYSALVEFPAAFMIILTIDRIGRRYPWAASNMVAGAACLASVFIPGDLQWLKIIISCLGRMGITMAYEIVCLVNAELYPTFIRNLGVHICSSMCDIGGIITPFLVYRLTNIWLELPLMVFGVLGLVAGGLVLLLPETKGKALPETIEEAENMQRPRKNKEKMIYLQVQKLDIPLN

DAT [1] = molecular target: T2, DAT (Homo sapiens, UniProt Q01959); test: cell-based; conditions: read-out: Emax [95%-CI], DAT mediated [3H]MPP+ release
T2 sequence (Q01959 whole entry): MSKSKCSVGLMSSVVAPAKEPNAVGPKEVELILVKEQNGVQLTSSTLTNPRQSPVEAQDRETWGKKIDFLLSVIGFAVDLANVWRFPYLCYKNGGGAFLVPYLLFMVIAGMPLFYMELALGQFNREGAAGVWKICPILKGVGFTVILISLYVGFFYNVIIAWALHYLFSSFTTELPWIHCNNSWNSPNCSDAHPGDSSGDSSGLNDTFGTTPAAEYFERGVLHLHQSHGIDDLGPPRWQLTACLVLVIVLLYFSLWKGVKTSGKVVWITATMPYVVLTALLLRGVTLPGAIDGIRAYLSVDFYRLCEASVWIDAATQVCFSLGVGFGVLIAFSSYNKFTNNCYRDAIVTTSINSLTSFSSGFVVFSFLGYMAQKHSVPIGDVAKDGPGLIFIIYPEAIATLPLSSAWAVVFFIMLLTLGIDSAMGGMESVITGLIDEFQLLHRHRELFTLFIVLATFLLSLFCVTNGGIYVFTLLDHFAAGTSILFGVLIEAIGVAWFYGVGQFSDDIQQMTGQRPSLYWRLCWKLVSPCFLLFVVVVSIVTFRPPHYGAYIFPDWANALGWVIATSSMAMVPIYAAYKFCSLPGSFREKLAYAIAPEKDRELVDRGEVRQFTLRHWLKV

male Swiss CD-1 mice [2] = test: Conditioned place preference (CPP); format: in vivo; conditions: for rewarding effects (CPP preference score): 10 mg/kg i.p., compared to saline; for CPP preference score: lowest dose tested
Method: (§1) Male Swiss CD-1 mice (Janvier, Le Genest, France), weighing 30–35 g and aged 6–8 weeks, were used for HLA, thigmotaxis, CPP, and core body temperature experiments. Animals were housed under temperature-controlled conditions (22 ± 1 °C) with a 12 h light/dark cycle and had free access to food and water (standard laboratory diet, Panlab SL, Barcelona, Spain). Doses for HLA, thigmotaxis, CPP, and core body temperature experiments were calculated based on the free base form of each compound. For HTR experiments, male C57BL/6J mice (6–8 weeks old) were obtained from Jackson Laboratories (Bar Harbor, ME, USA) and housed up to four per cage with a reversed light-cycle (lights on at 1900 h, off at 0700 h). Food and water were provided ad libitum, except during behavioral testing. Testing was conducted between 1000 and 1830 h. Doses for HTR experiments were calculated based on the respective salt forms of the compounds.
For this experiment, an apparatus with two distinct compartments, differing in tactile and visual cues, connected by a central corridor, was used. The conditioned place preference (CPP) procedure consisted of three phases: preconditioning, conditioning, and postconditioning. In the preconditioning phase (day 0), mice were placed in the middle of the corridor and allowed to freely explore both compartments for 15 min. The time spent in each compartment was recorded and monitored using specific tracking software (Smart 3.0 Panlab, Barcelona, Spain). In the conditioning phase (day 1–day 8), access to the corridor was closed. […] On alternate days, , mice received a saline i.p. injection and were placed in the other compartment for 30 min. Mice in the control group received a saline injection in every session. The compartments and sessions in which the drug was administered were randomized. In the postconditioning phase (test day), the same conditions as the preconditioning phase were reinstated. A preference score was determined by calculating the difference in time spent in the drug-paired compartment between the post- and preconditioning phases.

[3] = molecular target: T3, human organic cation transporter 1 (OCT1) (Homo sapiens, UniProt O15245); test: Uptake inhibition assay, [3H]MPP+ uptake in HEK293 cells
T3 sequence (O15245 1-554): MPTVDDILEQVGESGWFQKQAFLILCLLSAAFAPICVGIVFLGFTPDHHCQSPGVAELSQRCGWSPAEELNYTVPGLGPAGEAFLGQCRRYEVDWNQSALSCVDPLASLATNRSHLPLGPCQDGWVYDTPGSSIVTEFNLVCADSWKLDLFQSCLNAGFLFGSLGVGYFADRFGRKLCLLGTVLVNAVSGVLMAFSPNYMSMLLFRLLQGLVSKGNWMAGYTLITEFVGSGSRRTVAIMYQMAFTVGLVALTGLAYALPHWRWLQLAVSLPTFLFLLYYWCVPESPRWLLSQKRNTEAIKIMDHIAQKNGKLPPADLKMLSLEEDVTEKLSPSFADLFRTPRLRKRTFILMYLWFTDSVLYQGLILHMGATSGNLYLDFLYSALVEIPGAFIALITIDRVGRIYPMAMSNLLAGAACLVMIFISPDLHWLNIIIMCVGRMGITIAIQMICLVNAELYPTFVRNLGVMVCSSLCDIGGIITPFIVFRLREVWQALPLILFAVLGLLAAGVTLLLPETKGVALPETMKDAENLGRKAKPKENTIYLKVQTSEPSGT

NET = NET (Homo sapiens, UniProt P23975); test: Release (superfusion) assay, NET mediated [3H]MPP+ release; conditions: for Emax: read-out: Emax [95%-CI], NET mediated [3H]MPP+ release
Chain of NET (P23975 whole entry, the tested form may be a part): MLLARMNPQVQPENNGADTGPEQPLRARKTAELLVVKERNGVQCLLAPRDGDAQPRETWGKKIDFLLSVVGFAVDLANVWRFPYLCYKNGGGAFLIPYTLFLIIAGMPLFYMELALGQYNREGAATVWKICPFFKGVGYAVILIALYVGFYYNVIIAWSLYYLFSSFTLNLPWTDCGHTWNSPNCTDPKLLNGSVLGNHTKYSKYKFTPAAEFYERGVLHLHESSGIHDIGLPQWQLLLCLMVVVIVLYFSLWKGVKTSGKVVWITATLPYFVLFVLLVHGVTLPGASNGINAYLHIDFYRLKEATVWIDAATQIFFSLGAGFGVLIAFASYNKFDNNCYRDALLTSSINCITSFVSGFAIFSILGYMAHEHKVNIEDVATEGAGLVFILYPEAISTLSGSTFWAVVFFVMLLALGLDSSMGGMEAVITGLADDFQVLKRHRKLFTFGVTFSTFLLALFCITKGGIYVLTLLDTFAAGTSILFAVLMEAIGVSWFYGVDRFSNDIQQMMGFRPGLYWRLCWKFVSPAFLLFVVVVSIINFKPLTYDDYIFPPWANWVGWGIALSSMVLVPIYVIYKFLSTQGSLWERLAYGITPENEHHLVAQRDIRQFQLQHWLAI

DAT [4] = molecular target: T2, DAT; conditions: for DAT/SERT ratio (EC50): efflux assays
5-HT2B = molecular target: T4, 5-HT2B (Homo sapiens, UniProt P41595); test: Gq dissociation BRET assay in HEK293T cells; format: cell-based; conditions: for EC50: Gq dissociation BRET, read-out: EC50 5-HT2B; for Emax: HEK-293T, read-out: Emax ± SEM, %5-HT response 5-HT2B
T4 construct: expressed in transfected cells; host or cells: HEK293T (ATCC; RRID:CVCL_0063), transient transfection
T4 sequence (P41595 whole entry): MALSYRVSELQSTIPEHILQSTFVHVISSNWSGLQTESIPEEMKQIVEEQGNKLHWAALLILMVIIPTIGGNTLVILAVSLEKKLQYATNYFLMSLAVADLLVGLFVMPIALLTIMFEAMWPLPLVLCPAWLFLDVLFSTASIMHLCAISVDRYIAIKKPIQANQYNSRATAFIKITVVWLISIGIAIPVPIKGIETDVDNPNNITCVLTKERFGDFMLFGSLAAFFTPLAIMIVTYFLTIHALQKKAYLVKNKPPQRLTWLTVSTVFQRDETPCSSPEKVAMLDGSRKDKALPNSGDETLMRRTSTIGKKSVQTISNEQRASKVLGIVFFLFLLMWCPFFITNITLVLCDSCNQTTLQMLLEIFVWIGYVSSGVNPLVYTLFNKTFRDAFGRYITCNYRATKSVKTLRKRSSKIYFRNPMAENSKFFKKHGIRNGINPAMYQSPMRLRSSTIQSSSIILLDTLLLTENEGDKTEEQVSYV

male Swiss CD-1 mice [5] = test: Core body temperature; format: in vivo; conditions: 10 mg/kg i.p., 22 ± 1 °C and 28 ± 1 °C, compared with MDMA and SDMA
Method: as §1
Changes in body temperature were measured by means of subcutaneously implanted temperature transponders (IPTT-300; Bio Medic Data Systems, Inc., DE, USA). Seven mice were used per group. […] Subsequently, core body temperature measures were taken for 1 h, every 10 min before administration, using a DAS-8007 Wireless Reader System (Bio Medic Data Systems, Inc.), to establish a baseline. […]

## CNC(C)Cc1ccc2c(c1)SCO2 (stereo not shown) [SDMA, 1-(1,3-benzoxathiol-5-yl)-N-methylpropan-2-amine]
OCT2
  IC50: 4130 ± 600 nM
DAT [1]
  Emax: 35.4%
Male Swiss CD-1 mice [2]
  rewarding effects (CPP preference score): neither SDA nor SDMA induced significant rewarding effects
  CPP preference score: positive preference score at the same dose, it did not reach significance
[3]
  IC50: 4390 ± 2840 nM
NET
  EC50: 360 nM
  type of releaser at NET: full releasers
  Emax: 104%
DAT [4]
  type of releaser at DAT: partial releasers
  DAT/SERT ratio (EC50): 0.37
5-HT2B
  EC50: 357 nM
  Emax: 70 ± 3.4%

## CC(N)Cc1ccc2c(c1)SCO2 (stereo not shown) [SDA, 1-(1,3-benzoxathiol-5-yl)propan-2-amine]
OCT2
  IC50: 5700 ± 600 nM
DAT [1]
  Emax: 55.4%
Male Swiss CD-1 mice [2]
  rewarding effects (CPP preference score): neither SDA nor SDMA induced significant rewarding effects
  CPP preference score: significant preference score
[3]
  IC50: 3650 ± 270 nM
Male Swiss CD-1 mice [5]
  core body temperature changes: significantly increased and prolonged core temperature changes
NET
  EC50: 150 nM
  type of releaser at NET: full releasers
  Emax: 99.6%
DAT [4]
  type of releaser at DAT: partial releasers
  DAT/SERT ratio (EC50): 0.66
5-HT2B
  EC50: 41.5 nM
  Emax: 88.2 ± 3.7%
